Consider 6 compounds from article PMC5581314, “Targeting the Type II Secretion System: Development, Optimization, and Validation of a High-Throughput Screen for the Identification of Small Molecule Inhibitors” (Frontiers in Cellular and Infection Microbiology, 2017).

In the first test the target is T1, LipA (Acinetobacter baumannii, UniProt A0ABX6CKD6).
T1 construct: gene lip; secreted LipA from plasmid-encoded lipBA, in culture supernatant
The test can be described thus: 4-nitrophenyl myristate lipase assay; IC50 in whole culture, direct inhibition by cell-free supernatant counter-screen. In kind it is cell-based.
Settings: not given
For orientation: Counterscreens check selectivity or assay interference.
The term IC50 denotes the concentration that inhibits the measured activity by half. For `CNCCCN1c2ccccc2CCc2ccccc21` [Desiprimine], the IC50 was found to be 16.5 µM.
`CCCCCCCCCCC[C@@H](C[C@@H]1OC(=O)[C@H]1CCCCCC)OC(=O)[C@H](CC(C)C)NC=O` [Orlistat] showed an IC50 of 0.0406 µM.

Still in this test, the particulars now being: read-out: IC50.
Regarding `CNCCC=C1c2ccccc2CCc2ccccc21` [Aventyl], the 50% inhibitory concentration (IC50) amounted to 14.5 µM.
Same read-out and setting: the figure for `CN(CCCN1c2ccccc2CCc2ccccc21)CC(=O)c1ccc(Cl)cc1` [Lofepramine] is 21 µM.
Same read-out and setting: the figure for `CNCCC=C1c2ccccc2C=Cc2ccccc21` [Norcyclobenzaprine] is 16 µM; for `CNCCCC1c2ccccc2C=Cc2ccccc21` [Vivactil] it is 10 µM.
